Assays:
[1] = Solubility in 1-methoxy-2-propanol (MOP) at 80° C., Lasentec FBRM technology; assay type: physicochemical; conditions: solubility in 1-methoxy-2-propanol at 80° C.; from curve fitting of experimental data
Experimental: (§1) In the present application the MetaStable Zone of solutions of a sensitizer and/or a mixture of sensitizers were measured with Lasentec® FBRM® technology, from Mettler Toledo. In this experimental set up, a Lasentec® Probe is used in an automated Labmax® 2 litre reactor, both from Mettler Toledo. In a typical investigation, the solution is cooled at a controlled rate (° C./min.) At a certain temperature, the probe detects nucleation and holds the solution at that temperature as crystallization proceeds. After completion of the crystallization, the solution is subjected to a controlled heating (° C./min) until the probe detects the temperature at which dissolution of the crystals is nearly completed. Again, the solution is kept at that temperature until all crystals are dissolved. Such cooling and heating cycli are performed for different concentrations of the solution. All actions, i.e. performing the cooling and heating cycli, dilution of the solution, storage and analysis of the data are performed automatically by the experimental set up used.
(§2) All investigations were performed on a sensitizer solution in 1-methoxy-2-propanol, since this typical coating solvent has a high boiling point (120° C.) and, as described above, will probably determine the crystallization behaviour at the end of the drying step of the photopolymerizable coating.
(§3) The obtained data for each investigated solution of a sensitizer or a mixture of sensitizers may be represented as in FIG. 1. In FIG. 1, curve S is the solubility curve and curve N the nucleation curve. These curves border three regions characterizing the solution as a function of concentration and temperature: the UnSaturated Zone (USZ), a stable zone wherein the solution is unsaturated (sensitizer is completely dissolved); an Unstable Zone (UZ), wherein crystallization occurs; and a MetaStable Zone (MSZ) wherein the solution is supersaturated but wherein no crystallization occurs.
(§4) The suspension was stirred at 350 rpm and heated until complete dissolution of all sensitizers. All following actions were automatically performed by the experimental set up used. The experimental set up constituted a Labmax® 2 liter automated lab reactor equipped with Lasentec® Probe and the Lasentec® D600 hardware, all distributed by Mettler Toledo. The Lasentec® FBRM® technology enables the detection of nucleation and dissolution temperatures of a solution. FBRM® stands for Focused Beam Reflectance Measurement. The Lasentec® probe measures the number and the average diameter of the particles in the suspension (the laser of the Lasentec® probe continuously scans, with a linear scan speed of 2 m/s, a region of the suspension; the laser light is reflected by the particles residing in the scanned region).
The 40 percent by weight solution was cooled at 0.2° C./minute. Upon detection of nucleation, i.e. when the Lasentec® FBRM® technology detects more than 800 particles with an average diameter of 1 to 20 μm, the so called ‘fines’ region, the mixture was kept at the attained temperature during 0.5 hour as crystallization proceeds. Upon completion of the crystallization, the mixture was heated at 0.2° C./minute. Upon detection of solubilization, i.e. when the Lasentec® FBRM® technology detects less than 30 particles with an average particle diameter of 20 to 50 μm, the so called ‘coarses’ region, the temperature was kept at the attained temperature during 0.5 hour until completion of the solubilization. […]

[2] = Solubility in methylethylketone (MEK) measured at 20° C.; assay type: physicochemical
Experimental: The symmetric sensitizers SS-01 to SS-06 are given in Table 1 together with their solubility in methylethylketone (S (MEK)) measured at 20° C.

[3] = MetaStable Zone Width (MSZW) in 1-methoxy-2-propanol at 80° C., Lasentec FBRM technology; assay type: physicochemical; conditions: cooling and heating rate 0.2° C./min, from curve fitting
Experimental: as §1, §2, §3
The MetaStable Zone Width (MSZW), expressed in ° C., at a given temperature, is the width of the Metastable Zone (MSZ) starting at the curve S at that given temperature. Since the MSZW is dependent on the cooling and heating rates, these rates were identical for all solutions investigated, i.e. 0.2° C./min. If the cooling rate would be indefinitely slow, the nucleation curve would practically coincide with the solubility curve and no MetaStable Zone would be detected.
as §4
The 40 percent by weight solution was cooled at 0.2° C./minute. […]

SMILES | S (MOP) 80° C. [1] | S (MEK) [2] | MSZW 80° C. [3] | melting point
COc1cc(/C=C/c2ccc(/C=C/c3cc(OC)c(OC(C)C)c(OC)c3)cc2)cc(OC)c1OC(C)C [SS-03] | 7.31 wt. % | 0.45 wt % | 1.7 °C | 
CCC(CC)Oc1c(OC)cc(/C=C/c2ccc(/C=C/c3cc(OC)c(OC(CC)CC)c(OC)c3)cc2)cc1OC [SS-05] | 6.14 wt. % | 9.64 wt % | 3.6 °C | 
COc1cc(/C=C/c2ccc(/C=C/c3cc(OC)c(OC)c(OC)c3)cc2)cc(OC)c1OC [SS-01] | 4.66 wt. % | 0.89 wt % | 4.5 °C | 
CCCCC(CC)COc1c(OC)cc(/C=C/c2ccc(/C=C/c3cc(OC)c(OC(C)CC)c(OC)c3)cc2)cc1OC (stereo not drawn) [AS-01] |  |  |  | 81 °C
CCC(C)Oc1c(OC)cc(/C=C/c2ccc(/C=C/c3cc(OC)c(OC(CC)CC)c(OC)c3)cc2)cc1OC (stereo not drawn) [AS-02] |  |  |  | 155 °C
CCCOc1c(OC)cc(/C=C/c2ccc(/C=C/c3cc(OC)c(OCCC)c(OC)c3)cc2)cc1OC [SS-02] | 10.78 wt. % | 4.75 wt % | 4.5 °C | 
CCCCC(CC)COc1c(OC)cc(/C=C/c2ccc(/C=C/c3cc(OC)c(OCC(CC)CCCC)c(OC)c3)cc2)cc1OC (stereo not drawn) [SS-06] |  | 23.21 wt % |  | 
CCC(C)Oc1c(OC)cc(/C=C/c2ccc(/C=C/c3cc(OC)c(OC4CCCC4)c(OC)c3)cc2)cc1OC (stereo not drawn) [AS-04] |  |  |  | 153 °C
CCC(C)Oc1c(OC)cc(/C=C/c2ccc(/C=C/c3cc(OC)c(OCCO)c(OC)c3)cc2)cc1OC (stereo not drawn) [AS-05] |  |  |  | 137 °C
CCC(C)Oc1c(OC)cc(/C=C/c2ccc(/C=C/c3cc(OC)c(OC(C)CC)c(OC)c3)cc2)cc1OC (stereo not drawn) [SS-04] | 22.76 wt. % | 8.71 wt % | 1.6 °C | 
CCC(C)Oc1c(OC)cc(/C=C/c2ccc(/C=C/c3cc(OC)c(OC4CCCCC4)c(OC)c3)cc2)cc1OC (stereo not drawn) [AS-03] |  |  |  | 165 °C

From US20100104980A1, “LITHOGRAPHIC PRINTING PLATE PRECURSOR” (Agfa Graphics NV, priority 2007, published 2010)
